Data on 4 compounds can be found in ChEMBL document CHEMBL1127298, “Bis-catechol-substituted redox-reactive analogues of hexamethonium and decamethonium: stimulated affinity-dependent reactivity through iron peroxide catalysis” (J Med Chem, 1994).

Molecules are shown by their SMILES.

In assay [1] the target is T1, Acetylcholine receptor (Torpedo californica, UniProt P02710+P02712+P02714+P02718). The experiment in a line: Compound was evaluated for the binding constant for association with nicotinic acetylcholine receptor (nAChR). The assay is classed as protein-complex assay, Tetronarce californica.
In assay [2] the target is T1, Acetylcholine receptor. The experiment in a line: Binding affinity against nicotinic acetylcholine receptor (nAChR). The assay is classed as protein-complex assay, Tetronarce californica.

T1 sequence (P02710 whole entry): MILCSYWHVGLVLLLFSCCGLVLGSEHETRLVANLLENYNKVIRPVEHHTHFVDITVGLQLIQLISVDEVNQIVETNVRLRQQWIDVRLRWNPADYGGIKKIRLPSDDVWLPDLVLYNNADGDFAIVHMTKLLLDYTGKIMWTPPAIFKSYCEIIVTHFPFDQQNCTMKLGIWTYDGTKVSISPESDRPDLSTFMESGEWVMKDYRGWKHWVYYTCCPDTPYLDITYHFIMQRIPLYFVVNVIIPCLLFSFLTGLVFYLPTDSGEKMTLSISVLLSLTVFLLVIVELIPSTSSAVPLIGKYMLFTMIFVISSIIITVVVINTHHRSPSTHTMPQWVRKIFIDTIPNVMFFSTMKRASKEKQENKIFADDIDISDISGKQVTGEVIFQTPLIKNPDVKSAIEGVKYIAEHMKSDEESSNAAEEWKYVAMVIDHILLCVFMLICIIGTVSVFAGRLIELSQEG
T1 sequence (P02712 whole entry): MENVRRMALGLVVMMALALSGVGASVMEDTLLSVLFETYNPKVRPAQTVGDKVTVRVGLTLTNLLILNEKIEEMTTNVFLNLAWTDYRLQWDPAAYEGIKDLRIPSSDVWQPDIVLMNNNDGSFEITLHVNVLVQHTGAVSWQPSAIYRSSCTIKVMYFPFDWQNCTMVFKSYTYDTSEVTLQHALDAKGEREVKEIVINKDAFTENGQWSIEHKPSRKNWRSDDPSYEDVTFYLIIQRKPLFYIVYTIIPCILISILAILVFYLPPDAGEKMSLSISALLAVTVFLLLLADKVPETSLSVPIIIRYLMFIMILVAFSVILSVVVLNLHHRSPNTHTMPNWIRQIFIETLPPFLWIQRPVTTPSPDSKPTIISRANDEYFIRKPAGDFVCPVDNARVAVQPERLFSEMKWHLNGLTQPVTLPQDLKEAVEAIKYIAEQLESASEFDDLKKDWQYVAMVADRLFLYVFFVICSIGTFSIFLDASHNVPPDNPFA
T1 sequence (P02718 whole entry): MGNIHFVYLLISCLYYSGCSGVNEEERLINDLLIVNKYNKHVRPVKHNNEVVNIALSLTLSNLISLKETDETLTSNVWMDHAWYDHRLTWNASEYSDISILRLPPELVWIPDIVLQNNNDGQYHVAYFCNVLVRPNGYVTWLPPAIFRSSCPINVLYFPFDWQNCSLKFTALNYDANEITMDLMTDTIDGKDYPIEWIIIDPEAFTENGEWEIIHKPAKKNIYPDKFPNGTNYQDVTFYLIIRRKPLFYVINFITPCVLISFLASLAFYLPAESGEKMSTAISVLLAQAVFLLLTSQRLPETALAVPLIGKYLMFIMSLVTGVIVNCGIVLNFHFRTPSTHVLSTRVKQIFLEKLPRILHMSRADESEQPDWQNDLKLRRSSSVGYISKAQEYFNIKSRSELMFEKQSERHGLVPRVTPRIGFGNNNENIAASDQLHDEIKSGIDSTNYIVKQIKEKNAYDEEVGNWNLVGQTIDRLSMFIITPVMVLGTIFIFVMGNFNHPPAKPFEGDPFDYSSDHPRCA
T1 sequence (P02714 whole entry): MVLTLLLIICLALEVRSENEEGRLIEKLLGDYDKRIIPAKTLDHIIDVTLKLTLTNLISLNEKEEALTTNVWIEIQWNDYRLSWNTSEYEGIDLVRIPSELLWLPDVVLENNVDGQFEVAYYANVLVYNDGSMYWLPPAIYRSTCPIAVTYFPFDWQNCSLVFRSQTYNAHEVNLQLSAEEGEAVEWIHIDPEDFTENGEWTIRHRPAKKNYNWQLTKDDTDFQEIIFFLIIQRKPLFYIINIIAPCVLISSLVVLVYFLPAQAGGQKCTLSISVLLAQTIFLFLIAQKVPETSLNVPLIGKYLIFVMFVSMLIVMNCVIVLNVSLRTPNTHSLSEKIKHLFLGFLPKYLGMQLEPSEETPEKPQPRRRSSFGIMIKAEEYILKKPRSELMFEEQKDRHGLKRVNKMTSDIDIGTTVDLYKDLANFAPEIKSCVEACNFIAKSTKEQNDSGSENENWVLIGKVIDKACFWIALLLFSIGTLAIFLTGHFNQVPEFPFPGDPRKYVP

Broadly, the Kd is the constant that tells how readily two partners part at equilibrium. In turn, `C[N+](C)(C)CCCCCC[N+](C)(C)C` [HEXAMETHONIUM BROMIDE] gave a Kd in assay [1] of 18 nM.

In the case of `C[N+](C)(CCCCCCCCCC[N+](C)(C)Cc1cccc(O)c1O)Cc1cccc(O)c1O`, in assay [1], the Kd was 230 nM.

In general, Ki refers to the equilibrium dissociation constant of an inhibitor or competing ligand from its target. The low end stands for tighter binding, the high end for weaker binding. With `C[N+](C)(C)Cc1cccc(O)c1O`, in assay [2], the inhibition constant Ki came out at 28000 nM. This counts as double-digit micromolar.

For `C[N+](C)(CCCCCC[N+](C)(C)Cc1cccc(O)c1O)Cc1cccc(O)c1O`, in assay [1], the dissociation constant (Kd) is 18 nM. The compound further returned a Ki in assay [2] of 18 nM.
